Reference: ChEMBL document CHEMBL6083247, “Discovery of sulfone containing metallo-β-lactamase inhibitors with reduced bacterial cell efflux and histamine release issues” (Bioorg Med Chem Lett, 2024)

Legend:
[1] = Cmax in rat at 1 mg/kg, iv; format: ADME, organism-based; settings: in vivo
[2] = tested on: Escherichia coli; assay: Antibacterial activity against NDM-1 expressing Escherichia coli CLB30016 assessed as inhibition of bacterial growth in presence of IMI by absorbance based assay; format: functional
[3] = Inhibition of Metallo-beta-lactamase IMP-1 (unknown origin); design: species or system Bacteria
[4] = Toxicity in cardiovascular rat model assessed as increase in histamine release in plasma at 30 mg/kg,iv for 20 mins and measured after 20 mins of iv infusion with 100 mg/kg; format: organism-based; settings: in vivo, 40 min
[5] = Clearance in rhesus monkey at 1 mg/kg, iv; format: ADME, organism-based, Macaca mulatta; settings: in vivo
[6] = Unbound fraction in rhesus monkey plasma at 1 mg/kg, iv; format: ADME, organism-based, Macaca mulatta
[7] = tested on: Klebsiella pneumoniae; assay: Antibacterial activity against VIM-1 expressing Klebsiella pneumoniae IHMA599644 assessed as inhibition of bacterial growth in presence of IMI by absorbance based assay; format: functional
[8] = Cmax in rhesus monkey at 1 mg/kg, iv; format: ADME, organism-based, Macaca mulatta; settings: in vivo
[9] = tested on: Serratia marcescens; assay: Antibacterial activity against IMP-1 expressing Serratia marcescens CL5741 assessed as inhibition of bacterial growth in presence of IMI by absorbance based assay; format: functional
[10] = Clearance in rat at 1 mg/kg, iv; format: ADME, organism-based; settings: in vivo
[11] = Unbound fraction in rat plasma at 1 mg/kg, iv; format: ADME, organism-based
[12] = Cmax in rat at 100 mg/kg, iv; format: ADME, organism-based; settings: in vivo
[13] = Volume of distribution at steady state in rat at 1 mg/kg, iv; format: ADME, organism-based; settings: in vivo, read-out: Vdss
[14] = tested on: Escherichia coli; assay: Antibacterial activity against efflux mutant Escherichia coli; format: functional, organism-based
[15] = Cmax in rhesus monkey at 1 mg/kg, iv measured after 24 hrs; format: ADME, organism-based, Macaca mulatta; settings: in vivo
[16] = AUC in rhesus monkey at 1 mg/kg, iv; format: ADME, organism-based, Macaca mulatta; settings: in vivo
[17] = Toxicity in cardiovascular rat model assessed as decrease in blood pressure at 30 mg/kg,iv for 20 mins and measured after 20 mins of iv infusion with 100 mg/kg; format: organism-based; settings: in vivo, 40 min
[18] = Toxicity in cardiovascular rat model assessed as increase in histamine release in plasma at 100 mg/kg, iv; format: organism-based; settings: in vivo
[19] = Volume of distribution at steady state in rhesus monkey at 1 mg/kg, iv; format: ADME, organism-based, Macaca mulatta; settings: in vivo, read-out: Vdss
[20] = AUC in rat at 1 mg/kg, iv; format: ADME, organism-based; settings: in vivo
[21] = Inhibition of Metallo-beta-lactamase VIM-2 (unknown origin); design: species or system Bacteria
[22] = Toxicity in rhesus monkey assessed as adverse effects at 1 mg/kg, iv measured after 24 hrs; format: organism-based, Macaca mulatta; settings: in vivo
[23] = MRT in rhesus monkey at 1 mg/kg, iv; format: ADME, organism-based, Macaca mulatta; settings: in vivo
[24] = MRT in rat at 1 mg/kg, iv; format: ADME, organism-based; settings: in vivo
[25] = Toxicity in rat mast cells assessed as degranulation by measuring histamine release at 900 microM; format: cell-based; settings: mast cell
[26] = Efflux ratio of MITC95 for antibacterial activity against wildtype isogenic efflux/IMP-1 expressing Pseudomonas aeruginosa MB9798 assessed as inhibition of bacterial growth in presence of IMI to MITC95 for antibacterial activity against mutant isogenic efflux/IMP-1 expressing Pseudomonas aeruginosa MB9799 assessed as inhibition of bacterial growth in presence of IMI; format: functional
[27] = Inhibition of Metallo-beta-lactamase VIM-1 (unknown origin); design: species or system Bacteria
[28] = tested on: Staphylococcus aureus; assay: Antibacterial activity against wild type Staphylococcus aureus; format: functional, organism-based
[29] = Hemolytic activity in sheep red blood cells assessed as hemolysis; format: toxicity, cell-based, Ovis aries, Erythrocyte
[30] = tested on: Pseudomonas aeruginosa; assay: Antibacterial activity against wildtype isogenic efflux/IMP-1 expressing Pseudomonas aeruginosa MB9798 assessed as inhibition of bacterial growth in presence of IMI by absorbance based assay; format: functional

Q: What does the source list for `NCCS(=O)(=O)c1ccc(-c2cccc3sc(N)nc23)c(-c2nn[nH]n2)c1S(N)(=O)=O`?
A: Cmax [1]: 5.8 µM; MITC95 [2]: 0.78 µM; IC50 [3]: 0.23 nM; Activity [4]: Non-toxic; clearance [5]: 3.6 mL/min/kg; fraction unbound [6]: 0.23; MITC95 [7]: 3.13 µM; Cmax [8]: 18 µM; MITC95 [9]: 1.56 µM; clearance [10]: 32.1 mL/min/kg; fraction unbound [11]: 0.37; Cmax [12]: 569 µM; Vd [13]: 0.46 L/kg; IC50 [14]: > 200000 nM; Cmax [15]: 18 µM; AUC [16]: 10.2 µM·h; Activity [17]: Toxic; Activity [18]: Non-toxic; Vd [19]: 0.39 L/kg; AUC [20]: 1.15 µM·h; IC50 [21]: 1 nM; Activity [22]: Non-toxic; MRT [23]: 1.81 h; MRT [24]: 0.23 h; Activity [25]: Non-toxic; Ratio [26]: ~1; IC50 [27]: 0.31 nM; IC50 [28]: > 200000 nM; IC50 [29]: > 200000 nM; MITC95 [30]: 0.78 µM
